Experimental data as given in PMC7016953 (Cells, 2020).

Columns and labels:
[1] = test system: PC12 cells (native TRPC3 channel complexes); test: [Ca2+]i analysis in fura-2-loaded PC12 cells; type: cell-based, rat
Method: Human embryonic kidney 293 (HEK293) cells were stably transfected with expression plasmids that encode hTRPC3-YFP, hTRPC6-YFP, hTRPC7-YFP, mTRPC4ß-YFP, rTRPV1-CFP, rTRPV2-YFP, rTRPV3-YFP, mTRPV4-YFP, or hTRPM2 as previously described. Cell lines were cultured in Earle’s minimum essential medium (MEM; Sigma, Munich, Germany), supplemented with 10% fetal calf serum (Gibco Thermo Fisher Scientific, Darmstadt, Germany), 2 mM L-glutamine, and required concentrations of geneticin in a range of 0.4–1 mg/mL. A HEK293mTRPC5-YFP cell line was maintained and induced as described before. The HEK293mTRPM3α2 cells (expressing the Ca^2+-permeable main variant of mouse TRPM3) were kindly provided by Johannes Oberwinkler (Marburg, Germany), the HEK293hTRPA1 cells that constitutively overexpress the human TRPA1 were from Dr. Natalie Tigue and Dr. Steve Moore (GlaxoSmithKline, Harlow, UK). With the exception of mTRPC5-YFP, all cell lines constitutively overexpress the respective TRP channel under the control of a cytomegalovirus (CMV) promoter. A HEK cell line stably expressing the human protein kinase C (PKC) ε C-terminally tagged with YFP [13] was generated and maintained in the same medium as HEKTRPC3-YFP cells. PC12 cells were cultured in RPMI-1640 (Sigma, Munich, Germany) with 10% fetal calf serum, 2 mM L-glutamine, 100 U/mL penicillin, and 0.1 mg/mL streptomycin. For electrophysiological and single cell [Ca^2+]i imaging experiments, PC12 cells were plated onto 25 mm poly-L-lysine-coated glass coverslips and measured 24–48 h after seeding. All cells were maintained at 37 °C in a 5% CO2-aerated, humidified atmosphere.
The microfluorometric single-cell [Ca^2+]i analysis was performed on an inverted epifluorescence microscope (Carl Zeiss, Jena, Germany) and calibrated as described. Cells were grown on 25 mm coverslips and loaded with 4 µM fura-2/AM (AAT Bioquest, Sunnyvale, CA, U.S.A.) in HBS containing 0.2% BSA for 30 min at 37 °C. After gently rinsing the coverslips with HBS, coverslips were mounted in a bath chamber and superfused with HBS containing 0.035% BSA.
Figure 7 Expression of TRPC3 and functional responses to TRPC activators in PC12 rat pheochromocytoma cells. (A) Immunofluorescence analysis of TRPC3 (green channel) and tyrosine hydroxylase (TH; red channel) expression in PC12 cells. Nuclei were counterstained with DAPI (blue channel). Bars: 20 µm scale. Time course of the [Ca^2+]i (B) and averaged basal and peak [Ca^2+]i values (C) were recorded by microfluorometric analysis in fura-2-loaded PC12 cells grown on glass coverslips. […] Data represent averages (B) or means and S.D. (C) of 6–12 imaging experiments for each compound. Significant increases compared to the respective basal values are indicated (#: p < 0.05; Student´s t-test for paired data).

[2] = test system: T1, hTRPC7-YFP; test: Fluo-4 Ca2+ influx assay in HEK293 cells stably expressing TRPC7; type: cell-based, human; conditions: fluo-4 concentration response analysis
T1 construct: expressed in transfected cells

[3] = test system: T2, mTRPV4-YFP; test: Selectivity profiling, fluo-4 [Ca2+]i response, TRPV4; type: cell-based, mouse; conditions: 100 µM
T2 construct: expressed in transfected cells
Method: Human embryonic kidney 293 (HEK293) cells were stably transfected with expression plasmids that encode hTRPC3-YFP, hTRPC6-YFP, hTRPC7-YFP, mTRPC4ß-YFP, rTRPV1-CFP, rTRPV2-YFP, rTRPV3-YFP, mTRPV4-YFP, or hTRPM2 as previously described. Cell lines were cultured in Earle’s minimum essential medium (MEM; Sigma, Munich, Germany), supplemented with 10% fetal calf serum (Gibco Thermo Fisher Scientific, Darmstadt, Germany), 2 mM L-glutamine, and required concentrations of geneticin in a range of 0.4–1 mg/mL. A HEK293mTRPC5-YFP cell line was maintained and induced as described before. […] For electrophysiological and single cell [Ca^2+]i imaging experiments, PC12 cells were plated onto 25 mm poly-L-lysine-coated glass coverslips and measured 24–48 h after seeding. […]
The primary compound screen and the generation of concentration response curves in HEK293 cells or in PC12 cells were performed by using a custom-made fluorescence plate imager built into a robotic liquid handling station equipped with a 96-tip multichannel head (Freedom Evo 150, Tecan, Männedorf, Switzerland) as described previously. […] Plates were mounted on the imager, and fluorescence signals were recorded with a cooled Zyla 5.5 camera (Andor, Belfast, UK) through a 515 nm long pass filter. […] When inhibitory potencies were evaluated, a second pipetting step with the respective reference agonist was performed. […]

[4] = test system: T3, TRPM8; test: Selectivity profiling, fluo-4 [Ca2+]i response, TRPM8; type: cell-based; conditions: 100 µM
T3 construct: expressed in transfected cells
Method: The primary compound screen and the generation of concentration response curves in HEK293 cells or in PC12 cells were performed by using a custom-made fluorescence plate imager built into a robotic liquid handling station equipped with a 96-tip multichannel head (Freedom Evo 150, Tecan, Männedorf, Switzerland) as described previously. To this end, trypsinized cell suspensions were loaded with 4 µM fluo-4/AM (Invitrogen, Thermo Fisher Scientific, Waltham, MA, U.S.A.) in cell culture medium for 30 min at 37 °C. After brief centrifugation, cells were resuspended in HBS and dispensed into black pigmented, clear-bottom 384-well plates (Greiner µClear, Frickenhausen, Germany). Plates were mounted on the imager, and fluorescence signals were recorded with a cooled Zyla 5.5 camera (Andor, Belfast, UK) through a 515 nm long pass filter. The image acquisition was controlled by the µManager software (http://micro-manager.org), and excitation with a LED array (470 nm) was synchronized by the camera trigger output. […] When inhibitory potencies were evaluated, a second pipetting step with the respective reference agonist was performed. Fluorescence intensities were calculated from image stacks for each well with ImageJ (National Institutes of Health, Bethesda, MD, U.S.A.), corrected for background signals, and normalized to the initial intensities (F/F0). […]

[5] = test system: parental HEK293 cells; test: MTT cell viability assay; type: cell-based, human; conditions: 24 h
Method: Cells were seeded in poly-L-lysine-coated 96-well plates at a density of 10,000 cells per well. After 24 h, the medium was exchanged, and compounds or the corresponding solvent were added and incubated for another 24 h. Then, the medium was removed, and a fresh medium containing 0.5 mg/mL MTT was added. After 3 h of incubation, supernatants were aspirated, and cells containing formazan crystals were lysed with 100% DMSO. Finally, absorbance of DMSO-dissolved formazan was measured at 560 and 670 nm with a plate reader (Polarstar Omega, BMG Labtech, Germany). The differences of both extinctions were calculated, and values were normalized to a solvent control (0.25% DMSO).

`C[C@@H]1CC[C@H]2[C@@H](C)C(=O)O[C@@H]3O[C@@]4(C)CC[C@@H]1[C@]32OO4` [artemisinin] was tested. Which “[Ca2+]i in fura 2-loaded PC12 cells” value ([1]; artemisinin 50 or 100 µM, 6–12 experiments for each compound) did it give?
The value was “significant increases in [Ca^2+]i”.

And the “response to artemisinin after neuronal growth factor treatment of PC12 cells” value ([1]; neuronal growth factor treatment)?
Its value is “lower response”.

What about the “effect on TRPC7” value [2] of the same compound?
The value was “weakly activated”.

What about the “[Ca2+]i response, TRPV4” value [3] of the same compound?
Its value is “none of the cell lines responded”.

And the “[Ca2+]i response, TRPM8” value [4]?
The value was “none of the cell lines responded”.

And the “metabolic activity (MTT test)” value ([5]; 100 µM)?
The value was “slight and statistically significant reduction of metabolic activity”.

And the “metabolic activity (MTT test)” value ([5]; concentrations up to 50 µM)?
Its value is “did not reduce the metabolic activity”.
